According to US6566587B1, “Mutated 5-enolpyruvylshikimate-3-phosphate synthase, gene coding for said protein and transformed plants containing said gene” (priority 1995, dated 2003):

Experiments:
[1] = test system: maize EPSPS mutant Ala101/Ile102 (Gly 101→Ala and Thr 102→Ile); assay: In vitro EPSP synthase activity, inhibition by glyphosate (phosphate liberated); format: biochemical
Experimental: (§1) 2.a: Extraction of EPSP synthase The different EPSP synthase genes are introduced in the form of an NcoI-HindIII cassette into the plasmid vector pTro99a (Pharmacia, ref: 27-5007-01) cut with NcoI and HindIII. Recombinant E. coli DH10B bacteria overexpressing the different EPSP synthases are sonicated in 40 ml of buffer per 10 g of pelleted cells, and washed with this same buffer (200 mM Tris-HCl pH 7.8, 50 mM mercaptoethanol, 5 mM EDTA and 1 mM PMSF), to which 1 g of polyvinylpyrrolidone is added. The suspension is stirred for 15 minutes at 4° C. and then centrifuged for 20 minutes at 27,000 g and 4° C.
(§2) Ammonium sulphate is added to the supernatant to bring the solution to 40% saturation with respect to ammonium sulphate. The mixture is centrifuged for 20 minutes at 27,000 g and 4° C. Ammonium sulphate is added to the new supernatant to bring the solution to 70% saturation with respect to ammonium sulphate. The mixture is centrifuged for 30 minutes at 27,000 g and 4° C. The EPSP synthase present in this protein pellet is taken up in 1 ml of buffer (20 mM Tris-HCl pH 7.8 and 50 mM mercaptoethanol). This solution is dialysed overnight against two liters of this same buffer at 4° C.
(§3) The activity of each enzyme, as well as its glyphosate resistance, is measured in vitro over 10 minutes at 37° C. in the following reaction mixture: 100 mM maleic acid pH 5.6, 1 mM phosphoenolpyruvate, 3 mM shikimate 3-phosphate (prepared according to Knowles P. R. and Sprinson D. B. 1970. Methods in Enzymol 17A, 351-352 from Aerobacter aerogenes strain ATCC 25597) and 10 mM potassium fluoride. The enzyme extract is added at the last moment after the addition of glyphosate, the final concentration of which varies from 0 to 20 mM.
(§4) The activity is measured by assaying the phosphate liberated according to the technique of Tausky H. A. and Shorr E. 1953. J. Biol. Chem. 202, 675-685.

maize EPSPS mutant Ala = assay: as above; format: biochemical
Experimental: as §1, §2, §3, §4

[2] = biological target: T1, maize EPSPS mutant Ile102 (Thr 102→Ile) (Zea mays, UniProt O24566, T102I); assay: as above; format: biochemical; details: 10 minutes at 37° C., pH 5.6, 1 mM phosphoenolpyruvate
T1 sequence (O24566 1-444 T102I): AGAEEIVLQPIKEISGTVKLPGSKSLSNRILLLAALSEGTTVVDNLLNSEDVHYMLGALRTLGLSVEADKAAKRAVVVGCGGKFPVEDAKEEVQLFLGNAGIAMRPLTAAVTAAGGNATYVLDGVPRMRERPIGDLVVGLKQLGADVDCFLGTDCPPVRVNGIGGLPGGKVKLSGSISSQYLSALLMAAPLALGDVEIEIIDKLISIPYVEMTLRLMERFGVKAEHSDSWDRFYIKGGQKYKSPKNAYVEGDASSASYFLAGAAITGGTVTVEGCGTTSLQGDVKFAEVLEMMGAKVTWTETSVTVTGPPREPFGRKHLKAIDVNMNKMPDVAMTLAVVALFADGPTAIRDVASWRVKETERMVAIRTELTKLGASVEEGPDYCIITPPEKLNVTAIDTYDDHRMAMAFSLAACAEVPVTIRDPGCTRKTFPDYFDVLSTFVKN
Experimental: as §1, §2, §3, §4

[3] = test system: maize EPSPS mutant Ile102/Ser106 (Thr 102→Ile and Pro 106→Ser); assay: as above; format: biochemical
Experimental: as §1, §2, §3, §4

[4] = test system: maize EPSPS mutant Ser106 (Pro 106→Ser); assay: as above; format: biochemical; details: glyphosate 0.12 mM; 10 minutes at 37° C., pH 5.6, 1 mM phosphoenolpyruvate
Experimental: as §1, §2, §3, §4

[5] = test system: wild-type (WT) maize EPSPS; assay: as above; format: biochemical; details: glyphosate 0.12 mM; 10 minutes at 37° C., pH 5.6, 1 mM phosphoenolpyruvate
Experimental: as §1, §2, §3, §4

[6] = test system: BMS (Black Mexican Sweet) maize cells not bombarded; assay: Growth of maize cells on medium containing herbicide; format: cell-based; details: 2 mM in medium
Experimental: (§5) BMS (Black Mexican Sweet) maize cells in an exponential growth phase are bombarded with the construction pRPA-RD-130 according to the principle and the protocol described by Klein et al. 1987 (Klein T. M., Wolf E. D., Wu R. and Sandford J. C. (1987): High velocity microprojectiles for delivering nucleic acids into living cells, NATURE Vol. 327 pp. 70-73).
(§6) Two days after bomardment, the cells are transferred to the same medium containing 2 mM N-(phosphonomethyl)glycine.

[7] = test system: BMS (Black Mexican Sweet) maize cells bombarded with the construction pRPA-RD-130; assay: Selection of transformed maize cells on medium containing herbicide; format: cell-based; details: 2 mM in medium, 8 weeks of selection
Experimental: as §5, §6

[8] = glyphosate concentrations up to 10 mM

O=C(O)CNCP(=O)(O)O [glyphosate, N-(phosphonomethyl)glycine]
inhibition of enzyme activity ([1]; glyphosate 0.12 mM): little or no inhibition | inhibition of enzyme activity ([1]; glyphosate 1.2 mM): still not being inhibited | inhibition of enzyme activity [1, 8]: not inhibited | inhibition of enzyme activity (maize EPSPS mutant Ala; glyphosate 1.2 mM): still not being inhibited | inhibition of enzyme activity (maize EPSPS mutant Ala; [8]): not inhibited | IC50 ([2]; read-out: glyphosate concentration producing a 50% inhibition): 1.2 mM | inhibition of enzyme activity ([2]; glyphosate 0.12 mM): little or no inhibition | inhibition of enzyme activity ([3]; glyphosate 0.12 mM): little or no inhibition | inhibition of enzyme activity ([3]; glyphosate 1.2 mM): still not being inhibited | inhibition of enzyme activity ([3]; glyphosate 20 mM): not reduced | inhibition of enzyme activity [4]: 50% | inhibition of enzyme activity [5]: 85% | cell growth on medium containing herbicide [6]: blocked by the herbicide and do not develop | callus development on selection medium [7]: calluses which develop
